Tested on in one series: not given
Assay: not given
Details: not given
One may read the melting point as the temperature of the solid-liquid transition. The molecule `C[C@@H]1CN(c2ccc3nc(-c4ccc(Cl)s4)c(-c4ccncc4)n3n2)C[C@H](C)N1` [Compound 13, 2-(5-chlorothien-2-yl)-6-[(cis)-3,5-dimethylpiperazin-1-yl]-3-(pyridin-4-yl)imidazo[1,2-b]pyridazine] gave a melting point of 220 to 222 °C. On the same count and under the same terms, in the case of `c1cc(-c2c(-c3ccsc3)nc3ccc(N4CCC5(CCCNC5)CC4)nn23)ccn1` [Compound 22, 9-[3-(pyridin-4-yl)-2-(thien-3-yl)imidazo[1,2-b]pyridazin-6-yl]-2,9-diazaspiro[5.5]undecane] it was 133 to 168 °C; in that of `c1csc(-c2nc3ccc(N4C[C@H]5CNC[C@H]5C4)nn3c2-c2ccncc2)c1` [Compound 6, 6-[(cis)-hexahydropyrrolo[3,4-c]pyrrol-2(1H)-yl]-3-(pyridin-4-yl)-2-(thien-2-yl)imidazo[1,2-b]pyridazine], 179 to 183 °C. On the same count and under the same terms, in the case of `c1cc(-c2c(-c3ccsc3)nc3ccc(N4CCC(N5CCCC5)CC4)nn23)ccn1` [Compound 23, 3-(pyridin-4-yl)-6-(4-pyrrolidin-1-ylpiperidin-1-yl)-2-(thien-3-yl)imidazo[1,2-b]pyridazine] it was 168 to 170 °C.

Turning to `CC(C)(O)CN1CCN(c2ccc3nc(-c4ccoc4)c(-c4ccncc4)n3n2)CC1` [Compound 31, 1-[4-(2-furan-3-yl-3-pyridin-4-ylimidazo[1,2-b]pyridazin-6-yl)piperazin-1-yl]-2-methylpropan-2-ol], the melting point lay in the range of 139 to 149 °C. Still for that read-out and setting: the figure for `Cc1ccc(-c2nc3ccc(N4C[C@H]5CN(C)C[C@H]5C4)nn3c2-c2ccncc2)o1` [Compound 33, 2-(5-Methylfuran-2-yl)-6-[(cis)-5-methylhexahydropyrrolo[3,4-c]pyrrol-2(1H)-yl]-3-(pyridin-4-yl)imidazo[1,2-b]pyridazine] is 178 to 181 °C; for `c1csc(-c2nc3ccc(N4CCC5(CCCNC5)CC4)nn3c2-c2ccncc2)c1` [Compound 8, 9-(3-(pyridin-4-yl)-2-(thien-2-yl)imidazo[1,2-b]pyridazin-6-yl)-2,9-diazaspiro[5.5]undecane] it is 184 to 189 °C; for `Cc1ccc(-c2nc3ccc(N4CCN(CCO)CC4)nn3c2-c2ccncc2)o1` [Compound 28, 2-{4-[2-(5-methylfuran-2-yl)-3-pyridin-4-ylimidazo[1,2-b]pyridazin-6-yl]piperazin-1-yl}ethanol] it is 190 to 192 °C.

With `CN1C[C@@H]2CN(c3ccc4nc(-c5ccc(Cl)s5)c(-c5ccncc5)n4n3)C[C@@H]2C1` [Compound 15, 2-(5-chlorothien-2-yl)-6-[(cis)-5-methylhexahydropyrrolo[3,4-c]pyrrol-2(1H)-yl]-3-(pyridin-4-yl)imidazo[1,2-b]pyridazine], the melting point fell in the range of 217 to 220 °C. Still for that read-out and setting: in the case of `CC(C)(O)CN1CCN(c2ccc3nc(-c4ccsc4)c(-c4ccncc4)n3n2)CC1` [Compound 19, 2-methyl-1-[4-(3-(pyridin-4-yl)-2-(thien-3-yl)imidazo[1,2-b]pyridazin-6-yl)piperazin-1-yl]propan-2-ol] it was 178 to 180 °C. The molecule `c1csc(-c2nc3ccc(N4CC5CCCNC5C4)nn3c2-c2ccncc2)c1` (stereo not drawn) [Compound 7, 6-(Octahydro-6H-pyrrolo[3,4-b]pyridin-6-yl)-3-(pyridin-4-yl)-2-(thien-2-yl)imidazo[1,2-b]pyridazine] returned a melting point of 176 to 179 °C. On the same count and under the same terms, in the case of `CN1CCN(c2ccc3nc(-c4ccsc4)c(-c4ccncc4)n3n2)CC1` [Compound 18, 6-(4-methylpiperazin-1-yl)-3-(pyridin-4-yl)-2-(thien-3-yl)imidazo[1,2-b]pyridazine] it was 177 to 179 °C; in that of `Cc1ccc(-c2nc3ccc(N4CCN(CC(C)(C)O)CC4)nn3c2-c2ccncc2)o1` [Compound 29, 2-methyl-1-{4-[2-(5-methylfuran-2-yl)-3-pyridin-4-ylimidazo[1,2-b]pyridazin-6-yl]piperazin-1-yl}propan-2-ol], 147 to 149 °C. `c1csc(-c2nc3ccc(N4CCNCC4)nn3c2-c2ccncc2)c1` [Compound 1, 6-(piperazin-1-yl)-3-(pyridin-4-yl)-2-(thien-2-yl)imidazo[1,2-b]pyridazine]: the melting point lay within 217 to 220 °C.

A further series deals with Mper1-luc Rat-1 (P2C4) fibroblasts. Nature of the series: Circadian cell assay: mPer1-promoter luciferase reporter, period prolongation. In kind it is cell-based. The note with it: effective concentration that induced a 1-hour prolongation of the circadian period. On the procedure: Mper1-luc Rat-1 (P2C4) fibroblast cultures were prepared by dividing the cultures every 3-4 days (approximately 10-20% of confluence) on 150 cm^2 degassed polystyrene tissue culture flasks (Falcon® #35-5001) and maintained in growth medium [EMEM (Cellgro #10-010-CV); 10% foetal bovine serum (FBS; Gibco #16000-044); and 50 I.U./ml of penicillin-streptomycin (Cellgro #30-001-CI)] at 37° C. and under 5% CO2.
Cells obtained from Rat-1 fibroblast cultures at 30-50% of confluence as described above were co-transfected with vectors containing the selectable marker for zeocin resistance for a stable transfection and a luciferase reporter gene controlled by the mPer-1 promoter. After 24 to 48 hours, the cultures were divided on 96-well plates and maintained in growth medium supplemented with 50-100 μg/ml of zeocin (Invitrogen® #45-0430) for 10-14 days. The zeocin-resistant stable transfectants were evaluated for the expression of the reporter gene by adding 100 μM luciferin (Promega® #E1603®) to the growth medium and by assaying the luciferase activity on a TopCount® scintillation counter (Packard Model #C384V00). The Rat-1 cell clones expressing both zeocin resistance and luciferase activity controlled by mPer1 were serum-shock synchronized with 50% horse serum [HS (Gibco® #16050-122)] and the activity of the circadian reporter was evaluated. The P2C4 clone of Mper1-luc Rat-1 fibroblasts was selected to test the compound.
Mper1-luc Rat-1 (P2C4) fibroblasts at 40-50% of confluence, obtained according to the protocol described above, were plated out onto 96-well opaque tissue culture plates (Perkin Elmer® #6005680). The cultures are maintained in growth medium supplemented with 100 μg/mL of zeocin (Invitrogen #45-0430) until they have reached 100% of confluence (48-72 h). The cultures were then synchronized with 100 μl of synchronization medium [EMEM (Cellgro #10-010-CV); 100 I.U./ml of penicillin-streptomycin (Cellgro #30-001-C1); HS at 50% (Gibco #16050-122)] for 2 hours at 37° C. and under 5% CO2. After synchronization, the cultures were rinsed with 100 μl of EMEM (Cellgro #10-010-CV) for 10 minutes at ambient temperature. After rinsing, the medium was replaced with 300 μl of CO2 independent medium [CO2I (Gibco #18045-088); 2 mM L-glutamine (Cellgro #25-005-C1); 100 I.U./ml of penicillin-streptomycin (Cellgro #30-001-C1); 100 μM luciferin (Promega #E 1603)]. […]
The period analysis was performed either by determining the interval between the relative light emission minima over several days or by Fourier transform. […] The data were analysed by adjusting a hyperbolic curve to the data expressed as change of period (Y-axis) as a function of the concentration of the test compound (X-axis) in the XLfit™ software, and the CE Delta (t+1 h) was interpolated from this curve.
(In general: In a reporter assay the amount or activity of a reporter protein is the signal.)
As for `CN1CCN(c2ccc3nc(-c4ccsc4)c(-c4ccncc4)n3n2)CC1` [Compound 18, 6-(4-methylpiperazin-1-yl)-3-(pyridin-4-yl)-2-(thien-3-yl)imidazo[1,2-b]pyridazine], the “CE Delta (t + 1 h)” value was 74 to 83 nM. Regarding `CN1C[C@@H]2CN(c3ccc4nc(-c5ccoc5)c(-c5ccncc5)n4n3)C[C@@H]2C1` [Compound 34], the “CE Delta (t + 1 h)” value stood at 17 nM.

In a further series the target is T1, casein kinase 1 epsilon (CK1 epsilon) (Homo sapiens, UniProt P49674).
T1 construct: Invitrogen Corporation (alternative)
T1 sequence (P49674 whole entry): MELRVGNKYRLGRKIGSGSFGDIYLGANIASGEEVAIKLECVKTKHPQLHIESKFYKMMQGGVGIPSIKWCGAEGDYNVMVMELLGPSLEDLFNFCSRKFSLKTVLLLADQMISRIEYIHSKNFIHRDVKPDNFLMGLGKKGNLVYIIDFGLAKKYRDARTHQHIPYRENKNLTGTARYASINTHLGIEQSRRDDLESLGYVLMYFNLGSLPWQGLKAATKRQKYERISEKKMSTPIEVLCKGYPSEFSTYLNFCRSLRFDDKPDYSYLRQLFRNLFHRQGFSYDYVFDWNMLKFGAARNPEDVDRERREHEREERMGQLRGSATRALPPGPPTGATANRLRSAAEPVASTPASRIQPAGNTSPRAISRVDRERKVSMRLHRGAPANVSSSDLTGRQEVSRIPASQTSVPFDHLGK
Nature of the series: Filter-plate assay of ATP-33P: inhibition of phosphorylation of casein by CK1 epsilon. In kind it is biochemical. The note with it: casein substrate, 10 μM ATP, 2 hours at ambient temperature. On the procedure: The capacity of the compounds of the invention to inhibit the phosphorylation of casein by casein kinase 1 epsilon and delta can be evaluated according to the procedure described in document US 2005/0131012.
Filter-Plate Assay of ATP-^33P for the Screening of CK1 Epsilon Inhibitors:
The effect of the compounds on inhibition of the phosphorylation of casein by the enzyme casein kinase 1 epsilon (CK1 epsilon) is measured using a casein assay with filtration of ATP-^33P in vitro.
Casein kinase 1 epsilon (0.58 mg/ml) is obtained via fermentation and purification processes carried out according to methods well known to those skilled in the art, or may also be obtained from Invitrogen Corporation™ (human CK1 epsilon).
The compounds are tested at five different concentrations so as to generate IC50 values, i.e. the concentration at which a compound is capable of inhibiting the enzymatic activity by 50%, or alternatively the % inhibition at a concentration of 10 micromolar.
“U”-bottomed Falcon plates are prepared by placing 5 μl of solutions of the compounds according to the invention at concentrations of 10, 1, 0.1, 0.01 or 0.001 μM in various wells. The solutions of the compounds according to the invention at these various concentrations are prepared by diluting in a test buffer (50 mM Tris, pH 7.5, […], 2 mM DTT and 1 mM EGTA) a stock solution in DMSO at a concentration of 10 mM. Next, 5 μl of dephosphorylated casein are added to a final concentration of 0.2 μg/μl, 20 μl of CK1 epsilon are added to a final concentration of 3 ng/μl, and 20 μl of ATP-^33P are added to a final concentration of 0.02 μCi/μl mixed with cold ATP (10 μM final—approximately 2×10^6 CPM per well). The final total test volume per well is equal to 50 μl.
The “U”-bottomed Falcon® test plate mentioned above is vortexed, and then incubated at ambient temperature for 2 hours. After 2 hours, the reaction is stopped by adding an ice-cold solution of 65 μl of cold ATP (2 mM) prepared in test buffer. 100 μl of the reaction mixture are then transferred from the “U”-bottomed Falcon®plate into Millipore MAPH filter plates, preimpregnated with 25 μl of ice-cold 100% TCA. […]
The plates are left to dry overnight at ambient temperature. […] The radiation emitted by each well is then measured for 2 minutes in a Packard® Topcount NXT scintillation counter, in which the values of CPM/well are measured.
The % inhibition of the capacity of the enzyme to phosphorylate the substrate (casein) is determined for each concentration of compound tested. These inhibition data expressed as percentages are used to calculate the IC50 value for each compound compared with the controls.
The kinetic studies determined the KM value for ATP as being 21 μM in this test system.
Usually IC50 stands for the midpoint of a concentration-inhibition curve. A lower IC50 goes with higher potency. As for `CN1CCN(c2ccc3nc(-c4ccsc4)c(-c4ccncc4)n3n2)CC1` [Compound 18, 6-(4-methylpiperazin-1-yl)-3-(pyridin-4-yl)-2-(thien-3-yl)imidazo[1,2-b]pyridazine], half-maximal inhibition (IC50) required 25 nM. The same measure, in the same setting: in the case of `CN1C[C@@H]2CN(c3ccc4nc(-c5ccoc5)c(-c5ccncc5)n4n3)C[C@@H]2C1` [Compound 34] it was 15 nM.
